d = 2'-deoxy (DNA); m = 2'-O-methyl
Experiments:
A549 [1] = assay: apoptosis, Cell Death Detection ELISA, A549; format: cell-based, human; details: OSDN
Method: (§1) In order to determine the effect of HDAC OSDNs on cell growth and cell death through apoptosis, A549 or T24 cells, MDAmb231 cells, and HMEC cells (ATCC, Manassas, Va.) were treated with HDAC OSDNs as previously described.
(§2) For the apoptosis study, cells were analyzed using the Cell Death Detection ELISA^Plus kit (Roche Diagnostic GmBH, Mannheim, Germany) according to the manufacturer's directions. Typically, 10,000 cells were plated in 96-well tissue culture dishes for 2 hours before harvest and lysis. Each sample was analyzed in duplicate. ELISA reading was done using a MR700 plate reader (DYNEX Technology, Ashford, Middlesex, England) at 410 nm. The reference was set at 490 nm.

A549 [2] = assay: cell growth analysis (trypan blue cell count), A549; format: cell-based, human; details: 50 nM, 72 hours
Method: (§3) Briefly, human A549 and/or T24 human bladder carcinoma cells were seeded in 10 cm tissue culture dishes one day prior to oligonucleotide treatment. The cell lines were obtained from the American Type Culture Collection (ATCC) (Manassas, Va.) and were grown under the recommended culture conditions. Before the addition of the oligonucleotides, cells were washed with PBS (phosphate buffered saline). Next, lipofectin transfection reagent (GIBCO BRL Mississauga, Ontario, Calif.), at a concentration of 6.25 μg/ml, was added to serum free OPTIMEM medium (GIBCO BRL, Rockville, Md.), which was then added to the cells. The oligonucleotides to be screened were then added directly to the cells (i.e., one oligonucleotide per plate of cells). Mismatched oligonucleotides were used as controls. The same concentration of oligonucleotide (e.g., 50 nM) was used per plate of cells for each oligonucleotide tested.
as §1
(§4) Cells were harvested and cell numbers counted by trypan blue exclusion using a hemocytometer. Percentage of inhibition was calculated as (100—AS cell numbers/control cell numbers)%.

human HDAC-4 RNA = assay: antisense screen by Northern blot in T24 cells, HDAC-4; format: cell-based; details: screened as above (T24 cells, 100 nM, 24 hours)
Method: Seventeen phosphorothioate ODNs containing sequences complementary to the 5′ or 3′ UTR of the human HDAC-4 gene (GenBank Accession No. AB006626) were screened as above. […] HDAC-4 MM1 and MM2 oligonucleotides were created as controls; compared to the antisense oligonucleotides, they each contain a 6-base mismatch.
as §3
Cells were harvested, and total RNAs were analyzed by Northern blot analysis. Briefly, total RNA was extracted using RNeasy miniprep columns (QIAGEN). […]

MDAmb231 [3] = assay: apoptosis, Cell Death Detection ELISA, MDAmb231; format: cell-based, human; details: OSDN
Method: as §1, §2

[4] = system: p21 protein in A549 cells; assay: Western blot of p21 protein in A549 cells; format: cell-based, human; details: FIG. 15
HMEC = assay: apoptosis, Cell Death Detection ELISA, HMEC; format: cell-based, human; details: OSDN, normal cells
Method: as §1, §2

MDAmb231 [5] = assay: cell growth analysis (trypan blue cell count), MDAmb231; format: cell-based, human; details: 50 nM, 72 hours
Method: as §3, §1, §4

T24 [6] = assay: apoptosis, Cell Death Detection ELISA, T24; format: cell-based, human; details: OSDN
Method: as §1, §2

T24 [7] = assay: cell growth analysis (trypan blue cell count), T24; format: cell-based, human; details: 50 nM, 72 hours
Method: as §3, §1, §4

human HDAC-7 RNA = assay: antisense screen by Northern blot in T24 cells, HDAC-7; format: cell-based; details: screened as above (T24 cells, 100 nM, 24 hours)
Method: Eighteen phosphorothioate ODNs containing sequences complementary to the 5′ or 3′ untranslated regions of the human HDAC-7 gene (GenBank Accession No. AF239243) were screened as above.
as §3
Cells were harvested, and total RNAs were analyzed by Northern blot analysis. Briefly, total RNA was extracted using RNeasy miniprep columns (QIAGEN). Ten to twenty μg of total RNA was run on a formaldehyde-containing 1% agarose gel with 0.5 M sodium phosphate (pH 7.0) as the buffer system. […]

Row | Substance | Apoptosis After 48 Hour Treatment A549 (A549 [1]) | Growth Inhibition (AS vs. MM) A549 (A549 [2]) | antisense activity to human HDAC-4 (RNA expression, Northern blot) (human HDAC-4 RNA) | Apoptosis After 48 Hour Treatment MDAmb231 (MDAmb231 [3]) | expression of the p21 protein [4] | Apoptosis After 48 Hour Treatment HMEC (HMEC) | Growth Inhibition (AS vs. MM) MDAmb231 (MDAmb231 [5]) | Apoptosis After 48 Hour Treatment T24 (T24 [6]) | Growth Inhibition (AS vs. MM) T24 (T24 [7]) | antisense activity to human HDAC-7 (RNA expression, Northern blot) (human HDAC-7 RNA)
1 | HDAC-4 AS1: antisense oligonucleotide to human HDAC4, 5-GCTGCCTGCCGTGCCCACCC-3′ (SEQ ID NO:24) (sugars from the 5' end m4 d12 m4, all phosphorothioate, methylation of C and T or U not given here) | +++ (5-8X fold) | +++ (>75% inhibition) | antisense activity | ++ (3-5X fold) | induces the expression of the p21 protein | − (< = 2x fold over non-specific background) | ++ (50-75% inhibition) | + (2-3X fold) | ++ (50-75% inhibition) | 
2 | HDAC-7 AS: antisense oligonucleotide to human HDAC7, 5′-CTTCAGCCAGGATGCCCACA-3′ (SEQ ID NO:31) (sugars from the 5' end m4 d12 m4, all phosphorothioate, methylation of C and T or U not given here) |  |  |  |  |  |  |  |  |  | antisense activity
